Assay results from PubChem BioAssay AID298 (DTP/NCI, 2004).
“And” between values parts separate entries of the source, which are not always exact repeats. Identical values can stand only once. Inconclusive results are not listed. *1 amine or outer side, *2 acyl side, *3 side chain or, on linkers, in order; H or OH if unused. Where a SMILES comes first, the peptide text is derived from it. Bridges are numbered along the chain shown (N, C = ends). Roman numbers before positions name the chains, in order. [ ]: non-standard residue; d: D form. Actinocin(9to1) = Cc1c2oc3c(C)ccc(C(=O)[*:1])c3nc-2c(C(=O)[*:2])c(N)c1=O; aThr = C[C@H](O)[C@H](N)C(=O)O; NMeV = CN[C@H](C(=O)O)C(C)C; Sar = CNCC(=O)O

System: MX-1 breast xenograft, intrarenal, nude mice, tumor weight
Test: NCI In Vivo Anticancer Drug Screen. Data for tumor model Human Mammary Carcinoma MX-1 Xenograft (intrarenal inoculation) in NU/NU BALB/C (nude) mice
Conditions: endpoint: mean tumor weight change, higher = larger tumour
Procedure, shortened: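 Efficacy in vivo: tumor measurement or survival of treated animals divided by that of vehicle-dosed controls.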

[1] = dose: 75.0 mg/kg/injection, schedule: Q04DX003 (ip), vehicle: saline with Tween-80
[2] = dose: 150.0 mg/kg/injection, schedule: Q04DX003 (ip), vehicle: saline with Tween-80
[3] = dose: 300.0 mg/kg/injection, schedule: Q04DX003 (ip), vehicle: saline with Tween-80
[4] = dose: 600.0 mg/kg/injection, schedule: Q04DX003 (ip), vehicle: saline with Tween-80
[5] = dose: 1200.0 mg/kg/injection, schedule: Q04DX003 (ip), vehicle: saline with Tween-80
[6] = dose: 50.0 mg/kg/injection, schedule: Q04DX003 (sc), vehicle: saline with Tween-80
[7] = dose: 37.5 mg/kg/injection, schedule: Q04DX003 (sc), vehicle: Klucel (hydroxypropylcellulose) (HPC)

Cc1cc2c(C(C)C)c(O)c(O)c(C=NCCO)c2c(O)c1-c1c(C)cc2c(C(C)C)c(O)c(O)c(C=NCCO)c2c1O
T/C [1]: 111 % of control | T/C [2]: 86 % of control | T/C [3]: 58 % of control | T/C [4]: 97 % of control | T/C [5]: 69 % of control

CCOC(=O)[C@]1(Br)CC[C@@]1(Br)C(=O)OCC
T/C (dose: 300.0 mg/kg/injection, schedule: Q04DX003 (sc), vehicle: saline with Tween-80): 99 % of control | T/C (dose: 600.0 mg/kg/injection, schedule: Q04DX003 (sc), vehicle: saline with Tween-80): 96 % of control | T/C (dose: 1200.0 mg/kg/injection, schedule: Q04DX003 (sc), vehicle: saline with Tween-80): 94 % of control

CCCCCc1cc(/C=C2/N=C(c3ccc[nH]3)C=C2OC)[nH]c1C
T/C (dose: 16.0 mg/kg/injection, schedule: Q04DX003 (sc), vehicle: saline with Tween-80): 93 % of control | T/C (dose: 32.0 mg/kg/injection, schedule: Q04DX003 (sc), vehicle: saline with Tween-80): 93 % of control | T/C (dose: 64.0 mg/kg/injection, schedule: Q04DX003 (sc), vehicle: saline with Tween-80): 75 % of control | T/C (dose: 128.0 mg/kg/injection, schedule: Q04DX003 (sc), vehicle: saline with Tween-80): 46 % of control

Cc1c2oc3c(C)ccc(C(=O)N[C@@H]4C(=O)N[C@H](C(C)C)C(=O)N5CCC[C@H]5C(=O)N(C)CC(=O)N(C)[C@@H](C(C)C)C(=O)O[C@H]4C)c3nc-2c(C(=O)N[C@@H]2C(=O)N[C@H](C(C)C)C(=O)N3CCC[C@H]3C(=O)N(C)CC(=O)N(C)[C@@H](C(C)C)C(=O)O[C@H]2C)c(N)c1=O (I: [aThr][dV]P[Sar][NMeV] / II: [aThr][dV]P[Sar][NMeV]; ester I:1-I:C, II:1-II:C; linker I:N-II:N via Actinocin(9to1))
T/C (dose: 25.0 micrograms/kg/injection, schedule: Q01DX010 (sc), vehicle: saline): 100 % of control | T/C (dose: 50.0 micrograms/kg/injection, schedule: Q01DX010 (sc), vehicle: saline): 49 % of control | T/C (dose: 100.0 micrograms/kg/injection, schedule: Q01DX010 (sc), vehicle: saline): 12 % of control | T/C (dose: 200.0 micrograms/kg/injection, schedule: Q01DX010 (sc), vehicle: saline): 1 % of control

CCCCCCCC(=O)O[C@H]1[C@H]2[C@@H](CC1(C)C)C(=O)[C@]13O[C@H]1C(=O)[C@]1(CO1)[C@]23C
T/C (dose: 5.0 mg/kg/injection, schedule: Q04DX003 (ip), vehicle: saline with Tween-80): 100 % of control | T/C (dose: 10.0 mg/kg/injection, schedule: Q04DX003 (ip), vehicle: saline with Tween-80): 96 % of control | T/C (dose: 20.0 mg/kg/injection, schedule: Q04DX003 (ip), vehicle: saline with Tween-80): 80 % of control

CC(C)(C[NH-])C[NH-].[Cl][Pt+2][Cl]
T/C (dose: 1.5 mg/kg/injection, schedule: Q04DX003 (ip), vehicle: water): 56 % of control | T/C (dose: 6.0 mg/kg/injection, schedule: Q04DX003 (ip), vehicle: water): 2 % of control and 3 % of control

CNc1ncn(-c2c(C)cccc2C)c(=O)n1
T/C [2]: 92 % of control and 97 % of control | T/C [3]: 77 % of control | T/C [4]: 25 % of control

CN(N=O)C(N)=O
T/C (dose: 25.0 mg/kg/injection, schedule: Q04DX003 (sc), vehicle: saline): 80 % of control | T/C [6]: 9 % of control | T/C (dose: 50.0 mg/kg/injection, schedule: Q04DX003 (sc), vehicle: saline): 26 % of control

Clc1ccc(CN2COc3c(ccc4cccnc34)C2)cc1Cl
T/C (dose: 100.0 mg/kg/injection, schedule: Q01DX010 (sc), vehicle: saline with Tween-80): 91 % of control | T/C (dose: 400.0 mg/kg/injection, schedule: Q01DX010 (sc), vehicle: saline with Tween-80): 71 % of control | T/C (dose: 800.0 mg/kg/injection, schedule: Q01DX010 (sc), vehicle: saline with Tween-80): 44 % of control

Oc1ccc(/C=N/N=C/c2ccc(O)c(O)c2)cc1O
T/C [1]: 68 % of control | T/C [2]: 46 % of control | T/C [3]: 78 % of control | T/C [5]: 82 % of control

COc1ccc2c(c1)-c1nn(CCCN(C)C)c3ccc([N+](=O)[O-])c(c13)N2
T/C (dose: 12.5 mg/kg/injection, schedule: Q04DX003 (ip), vehicle: water): 66 % of control and 79 % of control | T/C (dose: 25.0 mg/kg/injection, schedule: Q04DX003 (ip), vehicle: water): 53 % of control and 56 % of control | T/C (dose: 50.0 mg/kg/injection, schedule: Q04DX003 (ip), vehicle: water): 19 % of control and 38 % of control and 41 % of control | T/C (dose: 100.0 mg/kg/injection, schedule: Q04DX003 (ip), vehicle: water): 13 % of control

Nc1ncnc2c1ncn2C1OC(CO)C(O)C1O (centres undefined)
T/C (dose: 150.0 mg/kg/injection, schedule: Q04DX003 (sc), vehicle: saline): 3 % of control and 23 % of control

CO[C@H]1Nc2c(ccc(C)c2O)C(=O)N2C=C(/C=C/C(N)=O)C[C@@H]12
T/C (dose: 0.25 mg/kg/injection, schedule: Q04DX003 (sc), vehicle: saline + alcohol): 41 % of control | T/C (dose: 0.5 mg/kg/injection, schedule: Q04DX003 (sc), vehicle: saline + alcohol): 12 % of control | T/C (dose: 1.0 mg/kg/injection, schedule: Q04DX003 (sc), vehicle: saline + alcohol): -58 % of control | T/C (dose: 2.0 mg/kg/injection, schedule: Q04DX003 (sc), vehicle: saline + alcohol): -98 % of control

CN=C(N)N/N=C(\C)c1ccc2sc3ccc(/C(C)=N/NC(N)=NC)cc3c2c1
T/C [2]: 90 % of control | T/C [3]: 59 % of control

Nc1ccc(Cn2ccc3c4c(N)nc(N)nc4ccc32)cc1
T/C (dose: 18.75 mg/kg/injection, schedule: Q04DX003 (sc), vehicle: saline with Tween-80): 80 % of control | T/C (dose: 37.5 mg/kg/injection, schedule: Q04DX003 (sc), vehicle: saline with Tween-80): 75 % of control

NC(CCl)=NCC12CC3CC(CC(C3)C1)C2
T/C [7]: 102 % of control | T/C (dose: 75.0 mg/kg/injection, schedule: Q04DX003 (sc), vehicle: Klucel (hydroxypropylcellulose) (HPC)): 104 % of control

O=c1[nH]cnc2c1cnn2CN1CCOCC1
T/C (dose: 150.0 mg/kg/injection, schedule: Q04DX003 (ip), vehicle: Klucel (hydroxypropylcellulose) (HPC)): 96 % of control | T/C (dose: 300.0 mg/kg/injection, schedule: Q04DX003 (ip), vehicle: Klucel (hydroxypropylcellulose) (HPC)): 65 % of control

O=S(=O)(CCl)OCCCl
T/C (dose: 25.0 mg/kg/injection, schedule: Q04DX003 (sc), vehicle: saline with Tween-80): 90 % of control | T/C [6]: 113 % of control | T/C (dose: 100.0 mg/kg/injection, schedule: Q04DX003 (sc), vehicle: saline with Tween-80): 95 % of control

Cc1nnc2ncccn12
T/C (dose: 100.0 mg/kg/injection, schedule: Q04DX003 (sc), vehicle: saline): 86 % of control | T/C (dose: 200.0 mg/kg/injection, schedule: Q04DX003 (sc), vehicle: saline): 104 % of control

O=S1(=O)CS(=O)(=O)OCCO1
T/C (dose: 12.5 mg/kg/injection, schedule: Q04DX003 (sc), vehicle: Klucel (hydroxypropylcellulose) (HPC)): 72 % of control | T/C (dose: 25.0 mg/kg/injection, schedule: Q04DX003 (sc), vehicle: Klucel (hydroxypropylcellulose) (HPC)): 23 % of control | T/C [7]: 42 % of control | T/C (dose: 50.0 mg/kg/injection, schedule: Q04DX003 (sc), vehicle: Klucel (hydroxypropylcellulose) (HPC)): 2 % of control | T/C (dose: 150.0 mg/kg/injection, schedule: Q04DX003 (sc), vehicle: Klucel (hydroxypropylcellulose) (HPC)): 16 % of control and 21 % of control | T/C (dose: 300.0 mg/kg/injection, schedule: Q04DX003 (sc), vehicle: Klucel (hydroxypropylcellulose) (HPC)): 11 % of control

CO[C@@H]1C2=CC=CC=C[C@H]2n2c(=O)n(C)c(=O)n21
T/C (dose: 75.0 mg/kg/injection, schedule: Q04DX003 (ip), vehicle: other): 36 % of control | T/C (dose: 150.0 mg/kg/injection, schedule: Q04DX003 (ip), vehicle: other): 34 % of control | T/C (dose: 300.0 mg/kg/injection, schedule: Q04DX003 (ip), vehicle: other): 92 % of control

CCC(NC(N)=O)C(CC)NC(N)=O (centres undefined)
T/C (dose: 6.25 mg/kg/injection, schedule: Q04DX003 (ip), vehicle: saline with Tween-80): 89 % of control | T/C (dose: 12.5 mg/kg/injection, schedule: Q04DX003 (ip), vehicle: saline with Tween-80): 78 % of control | T/C (dose: 25.0 mg/kg/injection, schedule: Q04DX003 (ip), vehicle: saline with Tween-80): 74 % of control

CN=S(=O)(OCCCCCOS(=O)(=NC)c1ccc(C)cc1)c1ccc(C)cc1 (centres undefined)
T/C (dose: 75.0 mg/kg/injection, schedule: Q04DX003 (sc), vehicle: saline with Tween-80): 86 % of control | T/C (dose: 150.0 mg/kg/injection, schedule: Q04DX003 (sc), vehicle: saline with Tween-80): 61 % of control

c1nnc(NCNc2nncs2)s1
T/C (dose: 50.0 mg/kg/injection, schedule: Q04DX003 (ip), vehicle: suspension in saline): 89 % of control | T/C (dose: 100.0 mg/kg/injection, schedule: Q04DX003 (ip), vehicle: suspension in saline): 59 % of control | T/C (dose: 200.0 mg/kg/injection, schedule: Q04DX003 (ip), vehicle: suspension in saline): 78 % of control | T/C (dose: 400.0 mg/kg/injection, schedule: Q04DX003 (ip), vehicle: suspension in saline): 65 % of control
